In ChEMBL document CHEMBL5512641, “Evaluation of novel 2-(quinoline-2-ylthio)acetamide derivatives linked to diphenyl-imidazole as α-glucosidase inhibitors: Insights from in silico, in vitro, and in vivo studies on their anti-diabetic properties” (Eur J Med Chem, 2024):
Values belong to the compound of their own block, whether it stands above or below them. The source made the active and inactive calls. The rule behind the calls is not given here.

Legend:
Rattus norvegicus [1] = experiment: Antidiabetic activity in high fat diet/streptozotocin induced diabetic Wistar albino rat model assessed as reduction in blood glucose level at 50 mg/kg, po administered once daily and measured on day 28 using overnight fasted rat blood by automatic blood glucose meter; type: functional; conditions: time 28 day
Rattus norvegicus [2] = experiment: Antidiabetic activity in 16 hrs fasted high fat diet/streptozotocin induced diabetic Wistar albino rat model assessed as reduction in blood glucose level at 50 mg/kg, po pretreated for 30 mins followed by glucose administration and measured after 30 to 120 mins by oral glucose tolerance test; type: functional, organism-based; conditions: time […]
Rattus norvegicus [3] = experiment: Antidiabetic activity in high fat diet/streptozotocin induced diabetic rat Wistar albino model assessed as reduction in blood glucose level at 50 mg/kg, po administered once daily and measured on day 14 using overnight fasted rat blood by automatic blood glucose meter; type: functional, organism-based; conditions: time 14.0 day
Rattus norvegicus [4] = experiment: Antidiabetic activity in high fat diet/streptozotocin induced diabetic Wistar albino rat model assessed as increase in body weight at 50 mg/kg, po administered once daily and measured for 28 days; type: functional, organism-based; conditions: time 28.0 day
Alpha-glucosidase [5] = biological target: T1, Alpha-glucosidase (Saccharomyces cerevisiae S288c, UniProt P53341+P38158+P07265); experiment: Inhibition of Saccharomyces cerevisiae alpha-glucosidase using p-nitrophenyl-alpha-D-glucopyranoside as substrate preincubated for 10 mins followed by substrate addition and measured after 20 mins by spectrophotometer; type: protein assay
Alpha-glucosidase [6] = biological target: T1, Alpha-glucosidase; experiment: Competitive inhibition of Saccharomyces cerevisiae alpha-glucosidase using varying concentrations of p-nitrophenyl-alpha-D-glucopyranoside as substrate by Lineweaver-Burk plot analysis; type: protein assay
Alpha-glucosidase [7] = biological target: T1, Alpha-glucosidase; experiment: Inhibition of Saccharomyces cerevisiae alpha-glucosidase using p-nitrophenyl-alpha-D-glucopyranoside as substrate measured after 20 mins by spectrophotometer; type: protein assay
[8] = Acute toxicity in male Wistar albino rat assessed as salivation at 250 to 1000 mg/kg, po administered via gastric gavage and measured daily for 2 weeks; type: organism-based; conditions: in vivo, 336 h, dose 250-1000 mg/kg
Rattus norvegicus [9] = experiment: Antidiabetic activity in high fat diet/streptozotocin induced diabetic Wistar albino rat model assessed as reduction in blood glucose level at 10 mg/kg, po administered once daily and measured on day 28 using overnight fasted rat blood by automatic blood glucose meter; type: functional; conditions: time 28 day
[10] = Acute toxicity in male Wistar albino rat assessed as symptoms of diarrhea at 250 to 1000 mg/kg, po administered via gastric gavage and measured daily for 2 weeks; type: organism-based; conditions: in vivo, 336 h, dose 250-1000 mg/kg
Rattus norvegicus [11] = experiment: Antidiabetic activity in 16 hrs fasted high fat diet/streptozotocin induced diabetic Wistar albino rat model assessed as reduction in blood glucose level at 10 to 50 mg/kg, po pretreated for 30 mins followed by glucose administration and measured after 60 to 120 mins by oral glucose tolerance test; type: functional, organism-based; conditions: dose 10-50 mg/kg, time 30-150 min
[12] = Acute toxicity in male Wistar albino rat assessed as effect on sleeping at 250 to 1000 mg/kg, po administered via gastric gavage and measured daily for 2 weeks; type: organism-based; conditions: in vivo, 336 h, dose 250-1000 mg/kg
[13] = Acute toxicity in male Wistar albino rat assessed as animal death at 250 to 1000 mg/kg, po administered via gastric gavage and measured daily for 72 hrs to 2 weeks; type: organism-based; conditions: in vivo, dose lower 250 mg/kg, time lower 3 day, dose upper 1000 mg/kg, time upper 14 day
Rattus norvegicus [14] = experiment: Antidiabetic activity in high fat diet/streptozotocin induced diabetic Wistar albino rat model assessed as reduction in blood glucose level at 10 to 50 mg/kg, po administered once daily and measured on day 7 using overnight fasted rat blood by automatic blood glucose meter; type: functional, organism-based; conditions: dose 10-50 mg/kg, time 7.0 day
[15] = Acute toxicity in male Wistar albino rat assessed as lethargy at 250 to 1000 mg/kg, po administered via gastric gavage and measured daily for 2 weeks; type: organism-based; conditions: in vivo, 336 h, dose 250-1000 mg/kg
Rattus norvegicus [16] = experiment: Antidiabetic activity in high fat diet/streptozotocin induced diabetic Wistar albino rat model assessed as reduction in blood glucose level at 20 mg/kg, po administered once daily and measured on day 28 using overnight fasted rat blood by automatic blood glucose meter; type: functional; conditions: time 28 day
[17] = Acute toxicity in male Wistar albino rat assessed as convulsions at 250 to 1000 mg/kg, po administered via gastric gavage and measured daily for 2 weeks; type: organism-based; conditions: in vivo, 336 h, dose 250-1000 mg/kg
Rattus norvegicus [18] = experiment: Antidiabetic activity in high fat diet/streptozotocin induced diabetic Wistar albino rat model assessed as reduction in blood glucose level at 50 mg/kg, po administered once daily and measured on day 21 using overnight fasted rat blood by automatic blood glucose meter; type: functional, organism-based; conditions: time 21.0 day
Rattus norvegicus [19] = experiment: Antidiabetic activity in high fat diet/streptozotocin induced diabetic Wistar albino rat model assessed as increase in body weight at 10 to 50 mg/kg, po administered once daily and measured for 28 days; type: functional, organism-based; conditions: dose 10-50 mg/kg, time 28.0 day
Rattus norvegicus [20] = experiment: Antidiabetic activity in 16 hrs fasted high fat diet/streptozotocin induced diabetic Wistar albino rat model assessed as reduction in blood glucose level at 10 to 50 mg/kg, po pretreated for 30 mins followed by glucose administration and measured immediately by oral glucose tolerance test; type: functional, organism-based; conditions: dose 10-50 mg/kg
[21] = Acute toxicity in male Wistar albino rat assessed as tremors at 250 to 1000 mg/kg, po administered via gastric gavage and measured daily for 2 weeks; type: organism-based; conditions: in vivo, 336 h, dose 250-1000 mg/kg
Rattus norvegicus [22] = experiment: Antidiabetic activity in high fat diet/streptozotocin induced diabetic Wistar albino rat model assessed as improvement in pancreatic islet architecture at 10 to 50 mg/kg, po administered once daily for 28 days by H and E staining based microscopic analysis; type: functional, organism-based; conditions: dose 10-50 mg/kg, time 28.0 day
Rattus norvegicus [23] = experiment: Antidiabetic activity in high fat diet/streptozotocin induced diabetic Wistar albino rat model assessed as reduction in blood glucose level at 10 to 50 mg/kg, po administered once daily and measured immediately by automatic blood glucose meter; type: functional, organism-based; conditions: dose 10-50 mg/kg
Rattus norvegicus [24] = experiment: Antidiabetic activity in 16 hrs fasted high fat diet/streptozotocin induced diabetic Wistar albino rat model assessed as reduction in blood glucose level at 25 to 50 mg/kg, po pretreated for 30 mins followed by glucose administration and measured after 30 mins by oral glucose tolerance test; type: functional, organism-based; conditions: dose 25-50 mg/kg, time 60.0 min
[25] = Acute toxicity in male Wistar albino rat assessed as symptoms of toxicity at 250 to 1000 mg/kg, po administered via gastric gavage and measured daily for 72 hrs; type: organism-based; conditions: in vivo, dose 250-1000 mg/kg
Rattus norvegicus [26] = experiment: Antidiabetic activity in high fat diet/streptozotocin induced diabetic Wistar albino rat model assessed as reduction in blood glucose level at 25 to 50 mg/kg, po administered once daily and measured on day 14 using overnight fasted rat blood by automatic blood glucose meter; type: functional, organism-based; conditions: dose 25-50 mg/kg, time 14.0 day
[27] = biological target: Alpha-glucosidase (Saccharomyces cerevisiae S288c) (UniProt P53341+P38158+P07265); experiment: Potency index, ratio of acarbose IC50 to test compound IC50 for inhibition of Saccharomyces cerevisiae alpha-glucosidase using p-nitrophenyl-alpha-D-glucopyranoside as substrate measured after 20 mins by spectrophotometer; type: protein assay
Alpha-glucosidase [28] = biological target: T1, Alpha-glucosidase; experiment: Uncompetitive inhibition of Saccharomyces cerevisiae alpha-glucosidase using varying concentrations of p-nitrophenyl-alpha-D-glucopyranoside as substrate by Lineweaver-Burk plot analysis; type: protein assay

Structure (SMILES): C[C@H]1O[C@H](O[C@H]2[C@H](O)[C@@H](O)[C@@H](O[C@H]3[C@H](O)[C@@H](O)C(O)O[C@@H]3CO)O[C@@H]2CO)[C@H](O)[C@@H](O)[C@@H]1N[C@H]1C=C(CO)[C@@H](O)[C@H](O)[C@H]1O (stereo partly drawn) [ACARBOSE]
Activity (Rattus norvegicus [1]): 115 mg/dL
Activity (Rattus norvegicus [2]): Active
Activity (Rattus norvegicus [3]): Active
Activity (Rattus norvegicus [4]): Active

IC50 (Alpha-glucosidase [5]): 85.6 µM
Structure (SMILES): Clc1ccccc1Cn1cc(CSc2nc(-c3ccccc3)c(-c3ccccc3)[nH]2)nn1

Ki (Alpha-glucosidase [6]): 1.4 µM
IC50 (Alpha-glucosidase [7]): 1.26 µM
Structure (SMILES): O=C(CSc1nc2ccccc2cc1-c1nc(-c2ccccc2)c(-c2ccccc2)[nH]1)NCc1ccc(F)cc1

Ki (Alpha-glucosidase [6]): 2.2 µM
IC50 (Alpha-glucosidase [7]): 1.22 µM
Structure (SMILES): O=C(CSc1nc2ccccc2cc1-c1nc(-c2ccccc2)c(-c2ccccc2)[nH]1)Nc1ccc2ccccc2c1

IC50 (Alpha-glucosidase [7]): 1.95 µM
Structure (SMILES): O=C(CSc1nc2ccccc2cc1-c1nc(-c2ccccc2)c(-c2ccccc2)[nH]1)Nc1ccccc1Cl

IC50 (Alpha-glucosidase [5]): 80 µM
Structure (SMILES): COc1ccc2nc3cc(Cl)ccc3c(SCC(=O)Nc3ccc(C)cc3)c2c1

IC50 (Alpha-glucosidase [7]): 1.85 µM
Structure (SMILES): O=C(CSc1nc2ccccc2cc1-c1nc(-c2ccccc2)c(-c2ccccc2)[nH]1)Nc1cccc(Cl)c1

Structure (SMILES): O=C(CSc1nc2ccccc2cc1-c1nc(-c2ccccc2)c(-c2ccccc2)[nH]1)Nc1ccc(F)cc1
Activity [8]: Non-Toxic
Activity (Rattus norvegicus [9]): 242 mg/dL
Activity [10]: Non-Toxic
Activity (Rattus norvegicus [1]): 127.83 mg/dL
Activity (Rattus norvegicus [11]): Active
Activity [12]: Non-Toxic
Activity [13]: Non-Toxic
Activity (Rattus norvegicus [14]): inactive
Activity [15]: Non-Toxic
Activity (Rattus norvegicus [16]): 207.83 mg/dL
Activity [17]: Non-Toxic
Activity (Rattus norvegicus [18]): Active
Activity (Rattus norvegicus [19]): Active
Ki (Alpha-glucosidase [6]): 0.15 µM
Activity (Rattus norvegicus [20]): inactive
Activity [21]: Non-Toxic
Activity (Rattus norvegicus [22]): Active
Activity (Rattus norvegicus [23]): inactive
Activity (Rattus norvegicus [24]): Active
Activity [25]: Non-Toxic
IC50 (Alpha-glucosidase [7]): 0.18 µM
Activity (Rattus norvegicus [26]): Active

IC50 (Alpha-glucosidase [7]): 2.02 µM
Structure (SMILES): O=C(CSc1nc2ccccc2cc1-c1nc(-c2ccccc2)c(-c2ccccc2)[nH]1)Nc1ccccc1F

IC50 (Alpha-glucosidase [7]): 1.98 µM
Structure (SMILES): O=C(CSc1nc2ccccc2cc1-c1nc(-c2ccccc2)c(-c2ccccc2)[nH]1)Nc1ccc(Br)cc1

IC50 (Alpha-glucosidase [7]): 2.05 µM
Structure (SMILES): Cc1cccc(NC(=O)CSc2nc3ccccc3cc2-c2nc(-c3ccccc3)c(-c3ccccc3)[nH]2)c1C

Ratio IC50 [27]: 375
IC50 (Alpha-glucosidase [7]): 2.1 µM
Structure (SMILES): O=C(CSc1nc2ccccc2cc1-c1nc(-c2ccccc2)c(-c2ccccc2)[nH]1)Nc1ccccc1

Ki (Alpha-glucosidase [28]): 1 µM
IC50 (Alpha-glucosidase [7]): 1.25 µM
Structure (SMILES): Cc1cccc(C)c1NC(=O)CSc1nc2ccccc2cc1-c1nc(-c2ccccc2)c(-c2ccccc2)[nH]1

IC50 (Alpha-glucosidase [7]): 1.5 µM
Structure (SMILES): Cc1ccccc1NC(=O)CSc1nc2ccccc2cc1-c1nc(-c2ccccc2)c(-c2ccccc2)[nH]1

IC50 (Alpha-glucosidase [5]): 14 µM
Structure (SMILES): Cc1cccc(C)c1NC(=O)CSc1nc2ccccc2cc1/C=N/NC(=O)c1ccccc1

Ki (Alpha-glucosidase [28]): 0.99 µM
IC50 (Alpha-glucosidase [7]): 1.02 µM
Structure (SMILES): Cc1c(NC(=O)CSc2nc3ccccc3cc2-c2nc(-c3ccccc3)c(-c3ccccc3)[nH]2)cccc1[N+](=O)[O-]

Ki (Alpha-glucosidase [28]): 0.77 µM
IC50 (Alpha-glucosidase [7]): 0.96 µM
Structure (SMILES): CCc1ccc(NC(=O)CSc2nc3ccccc3cc2-c2nc(-c3ccccc3)c(-c3ccccc3)[nH]2)cc1

IC50 (Alpha-glucosidase [7]): 1.79 µM
Structure (SMILES): O=C(CSc1nc2ccccc2cc1-c1nc(-c2ccccc2)c(-c2ccccc2)[nH]1)NCc1ccccc1

IC50 (Alpha-glucosidase [7]): 1.8 µM
Structure (SMILES): O=C(CSc1nc2ccccc2cc1-c1nc(-c2ccccc2)c(-c2ccccc2)[nH]1)Nc1ccc(Cl)cc1

IC50 (Alpha-glucosidase [7]): 1.53 µM
Structure (SMILES): Cc1cc([N+](=O)[O-])ccc1NC(=O)CSc1nc2ccccc2cc1-c1nc(-c2ccccc2)c(-c2ccccc2)[nH]1

IC50 (Alpha-glucosidase [7]): 1.58 µM
Structure (SMILES): O=C(CSc1nc2ccccc2cc1-c1nc(-c2ccccc2)c(-c2ccccc2)[nH]1)Nc1cccc(Cl)c1Cl

IC50 (Alpha-glucosidase [7]): 1.48 µM
Structure (SMILES): Cc1ccc(CNC(=O)CSc2nc3ccccc3cc2-c2nc(-c3ccccc3)c(-c3ccccc3)[nH]2)cc1

IC50 (Alpha-glucosidase [7]): 1.77 µM
Structure (SMILES): Cc1ccc(NC(=O)CSc2nc3ccccc3cc2-c2nc(-c3ccccc3)c(-c3ccccc3)[nH]2)cc1
